Reference: the NIST ThermoML archive (doi:10.1021/acs.jced.9b00152)

Key:
[1] = Liquid, Ebulliometric method (Recirculating still)
[2] = Boiling temperature at pressure P; conditions: Liquid, Ebulliometric method (Recirculating still)

CC(=O)OC(C)C [1-methylethyl ethanoate]
[1]
Conditions	vapor or sublimation pressure [kPa]
317.77 K	20
334.75 K	40
345.94 K	60
354.29 K	80
361.79 K	101.3

CC(=O)O [acetic acid]
Conditions	Boiling temperature at pressure P [°C]	vapor or sublimation pressure [kPa]
[1], 345.03 K	–	20
[1], 363.04 K	–	40
[1], 374.54 K	–	60
[1], 383.32 K	–	80
[1], 390.93 K	–	101.3
[2], 17 kPa	68.2	–
[2], 18.47 kPa	69.72	–
[2], 20.01 kPa	71.88	–
[2], 21.29 kPa	73.26	–
[2], 23.18 kPa	75.34	–
[2], 24.92 kPa	77.20	–
[2], 27.44 kPa	79.73	–
[2], 29.78 kPa	81.86	–
[2], 32.78 kPa	84.39	–
[2], 34.97 kPa	86.11	–
[2], 39.99 kPa	89.89	–
[2], 48.99 kPa	95.41	–
[2], 55.76 kPa	99.12	–
[2], 60.04 kPa	101.39	–
[2], 64.44 kPa	103.51	–
[2], 69.39 kPa	105.90	–
[2], 75.23 kPa	108.5	–
[2], 79.98 kPa	110.17	–
[2], 83.66 kPa	111.67	–
[2], 87.18 kPa	112.92	–
[2], 97.08 kPa	116.43	–
[2], 101.3 kPa	117.78	–

CCCOC(C)=O [propyl ethanoate]
Conditions	Boiling temperature at pressure P [°C]	vapor or sublimation pressure [kPa]
[1], 329.58 K	–	20
[1], 347.21 K	–	40
[1], 358.6 K	–	60
[1], 367.13 K	–	80
[1], 374.66 K	–	101.3
[2], 14.9 kPa	49.47	–
[2], 16.6 kPa	51.86	–
[2], 18.56 kPa	54.62	–
[2], 20 kPa	56.43	–
[2], 24.75 kPa	61.56	–
[2], 27.99 kPa	64.63	–
[2], 33.06 kPa	68.81	–
[2], 37.76 kPa	72.40	–
[2], 40.07 kPa	74.06	–
[2], 44.38 kPa	76.90	–
[2], 48.69 kPa	79.58	–
[2], 54.33 kPa	82.51	–
[2], 60.03 kPa	85.5	–
[2], 66.87 kPa	88.7	–
[2], 73.94 kPa	91.7	–
[2], 79.95 kPa	93.98	–
[2], 85.25 kPa	95.92	–
[2], 91.51 kPa	98.26	–
[2], 101.26 kPa	101.51	–
